In data set [1] the target is T1, recombinant human secretory phospholipase A2 (Homo sapiens, UniProt P14555).
T1 sequence (P14555 21-144): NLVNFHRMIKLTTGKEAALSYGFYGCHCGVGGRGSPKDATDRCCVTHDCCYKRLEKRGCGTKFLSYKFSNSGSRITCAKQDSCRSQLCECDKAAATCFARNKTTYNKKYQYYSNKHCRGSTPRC
Nature of the data set: Inhibition Test of Human Secretory Phospholipase A2 (chromogenic assay). The data set is classed as biochemical. The settings on record: sPLA2 50 ng/well, 40° C., 30 minutes, OD 405 nm, 96 well microtiterplate. The source says: Test Example: Inhibition Test of Human Secretory Phospholipase A2
In order to identify and evaluate an inhibitor of recombinant human secretory phospholipase A2, the following chromogenic assay is utilized. The assay herein has been applied for high volume screening wherein 96 well microtiterplate is used. A general explanation for such assay is described in “Analysis of Human Synovial Fluid Phospholipase A2 on Short Chain Phosphatidylcholine-Mixed Micelles: Development of a Spectrophotometric Assay Suitable for a Micortiterplate Reader” (Analytical Biochemistry, 204, pp 190-197, 1992 by Laure. J. Reynolds. Lori L. Hughes and Edward A. Dennis: the disclosure of which is incorporated herein for reference.
pH 7.5 (adjusted with NaOH)
pH 4.5 (adjusted with acetic acid)
1 mg of sPLA2 is dissolved in 1 ml of an enzyme buffer. Thereafter, the solution is maintained at 4° C.
In the assay, 5 μl of the solution is diluted with 1995 μl of the reaction buffer to be used.
198 mg of 5,5′-dithiobis-2-[…] (manufactured by Wako Pure Chemicals) is dissolved in 100 ml of H2O
H 7.5 (adjusted with NaOH)
100 mg of racemic 1,2-bis(heptanoylthio)-1,2-dideoxy-sn-glycero-3-phospholylcholine is dissolved in 1 ml of chloroform.
624.9 mg of Triton-X 100 is dissolved in the reaction buffer.
Enzyme Reaction: for 1 Plate of Microtiterplate
1) 0.106 ml of the substrate solution is put in a centrifugal tube, and nitrogen gas is jetted to remove the solvent. 0.54 ml of Triton-X 100 is added thereto, the mixture is stirred, thereafter it is sonified in a bath type sonification to dissolve. To the resulting product are added 17.8 ml of the reaction buffer and 0.46 ml of DTNB, and 0.18 ml each of the admixture is poured to wells of the 96 well microtiterplate.
2) 10 μl of a test compound (or solvent blank) are added in accordance with alignment of plates which has been previously set.
3) Incubation is effected at 40° C. for 15 minutes.
4) 20μl of an enzyme solution (sPLA2) which has been previously diluted (50 ng/well) are added to start reaction (40° C., 30 minutes).
5) Changes in absorbancy for 30 minutes are measured by a plate reader, and inhibition activity was calculated (OD: 405 nm).
6) IC50 was determined by plotting log concentration with respect to inhibition values within 10% to 90% inhibiting range.

In general, melting point refers to the temperature, or range, at which the solid turns liquid. As usually defined, the IC50 is the midpoint of a concentration-inhibition curve. Turning to `Cc1cn2c(Cc3ccc(F)cc3)c(C3CC3)c(C(=O)C(N)=O)c2c(OCC(=O)O)n1` [Compound I-78], the melting point was in the range of 185 to 187 °C. For the same compound, the 50% inhibitory concentration (IC50) in data set [1] was 60 nM.
For `CCc1c(C(=O)C(N)=O)c2c(OCC(=O)OC)nc(C3CCCCC3)cn2c1Cc1ccccc1` [Compound I-79], in that order: 193 to 194 °C and 62 nM.
In the same order, the values of `CCc1c(C(=O)C(N)=O)c2c(OCC(=O)O)nc(C3CCCCC3)cn2c1Cc1ccccc1` [Compound I-80] are 227 to 230 °C and 6 nM.
In the same order, the values of `CCc1c(C(=O)C(N)=O)c2c(OCC(=O)OC)nc(C3CCCCC3)cn2c1Cc1ccccc1-c1ccccc1` [Compound I-81] are 161.5 to 162.5 °C and 201 nM.
`CCc1c(C(=O)C(N)=O)c2c(OCC(=O)O)nc(C3CCCCC3)cn2c1Cc1ccccc1-c1ccccc1` [Compound I-82] yielded a melting point of 200 to 201.5 °C. Besides, the IC50 in data set [1] stood at 5 nM.
In the same order, the values of `COC(=O)COc1nc(C)cn2c(Cc3ccccc3)c(C)c(C(=O)C(N)=O)c12` [Compound I-83] are 205 to 207 °C and 116 nM.
Compound `Cc1cn2c(Cc3ccccc3)c(C)c(C(=O)C(N)=O)c2c(OCC(=O)O)n1` [Compound I-84] showed a melting point of 199.5 to 201 °C. Further, the IC50 in data set [1] stood at 8 nM.
As to `CCc1c(C(=O)C(N)=O)c2c(OCC(=O)OC)nc(C)cn2c1Cc1ccc(C)s1` [Compound I-85], the melting point lay in the range of 203 to 204 °C. For the same compound, in data set [1], the IC50 is 370 nM.
In the same order, the values of `CCc1c(C(=O)C(N)=O)c2c(OCC(=O)O)nc(C)cn2c1Cc1ccc(C)s1` [Compound I-86] are 216.5 to 218 °C and 11 nM.
`CCc1c(C(=O)C(N)=O)c2c(OCC(=O)OC)nc(C)cn2c1Cc1csc2ccccc12` [Compound I-87] came in with a melting point of 186 to 187 °C. The IC50 in data set [1] was 129 nM.
`CCc1c(C(=O)C(N)=O)c2c(OCC(=O)O)nc(C)cn2c1Cc1csc2ccccc12` [Compound I-88] displayed a melting point of 211 to 213 °C. Further, the IC50 in data set [1] amounted to 8 nM.
For `CCOC(=O)COc1nc(C)cn2c(Cc3ccc(F)cc3)c(CC)c(C(=O)C(N)=O)c12` [Compound I-89], in that order: 184 to 186 °C and 315 nM.
In the same order, the values of `CCOC(=O)COc1nc(C)cn2c(Cc3ccccc3-c3ccc(F)cc3)c(CC)c(C(=O)C(N)=O)c12` [Compound I-90] are 172 to 173 °C and 38 nM.
For `CCOC(=O)COc1nc(C)cn2c(Cc3ccccc3-c3cccs3)c(CC)c(C(=O)C(N)=O)c12` [Compound I-91], in that order: 160 to 161 °C and 48 nM.
`CCOC(=O)COc1nc(C)cn2c(Cc3ccccc3-c3ccsc3)c(CC)c(C(=O)C(N)=O)c12` [Compound I-92] registered a melting point of 185 to 186 °C. The IC50 in data set [1] is 76 nM.
For `CCCOC(=O)COc1nc(C)cn2c(Cc3ccc(F)cc3)c(CC)c(C(=O)C(N)=O)c12` [Compound I-93], in that order: 182 to 183 °C and 282 nM.
In the same order, the values of `CCCCCOC(=O)COc1nc(C)cn2c(Cc3ccc(F)cc3)c(CC)c(C(=O)C(N)=O)c12` [Compound I-94] are 175 to 176 °C and 650 nM.
For `CCc1c(C(=O)C(N)=O)c2c(OCC(=O)OCCN3CCOCC3)nc(C)cn2c1Cc1ccc(F)cc1` [Compound I-95], in that order: 139 to 140 °C and 175 nM.

(Values after US6407104B1, “Pyrrolo[1,2-a]pyrazine spla2 inhibitor” (Shionogi & Co., Ltd., priority 1998, dated 2002).)
